Patent US20260217767A1, “NOVEL A4B7 THIOETHER PEPTIDE DIMER ANTAGONISTS” (Protagonist Therapeutics, Inc., priority 2014, published 2026)
*1 amine or outer side, *2 acyl side, *3 side chain or, on linkers, in order; H or OH if unused. Where a SMILES comes first, the peptide text is derived from it. Bridges are numbered along the chain shown (N, C = ends). Roman numbers before positions name the chains, in order. [ ]: non-standard residue; d: D form. Phe(4-tBu) = CC(C)(C)c1ccc(C[C@H](N)C(=O)O)cc1; Bip = N[C@@H](Cc1ccc(-c2ccccc2)cc1)C(=O)O; Diglycolyl = O=C(COCC(=O)[*:2])[*:1]; NMeR = CN[C@@H](CCCNC(=N)N)C(=O)O; Tic = O=C(O)[C@@H]1Cc2ccccc2CN1; β3hE = N[C@@H](CCC(=O)O)CC(=O)O; X1 = O=C(c1ccccc1C[*:2])[*:1]; Pen = CC(C)(S)[C@H](N)C(=O)O

target: T1, RPMI 8866 cells (Homo sapiens, UniProt P13612+P26010); assay: α4β7-MAdCAM Cell Adhesion Assay; assay type: cell-based; details: thioether monomer peptides, Table 6; read-out: Cell-Adhesion A4B7
T1 sequence (P13612 34-1032): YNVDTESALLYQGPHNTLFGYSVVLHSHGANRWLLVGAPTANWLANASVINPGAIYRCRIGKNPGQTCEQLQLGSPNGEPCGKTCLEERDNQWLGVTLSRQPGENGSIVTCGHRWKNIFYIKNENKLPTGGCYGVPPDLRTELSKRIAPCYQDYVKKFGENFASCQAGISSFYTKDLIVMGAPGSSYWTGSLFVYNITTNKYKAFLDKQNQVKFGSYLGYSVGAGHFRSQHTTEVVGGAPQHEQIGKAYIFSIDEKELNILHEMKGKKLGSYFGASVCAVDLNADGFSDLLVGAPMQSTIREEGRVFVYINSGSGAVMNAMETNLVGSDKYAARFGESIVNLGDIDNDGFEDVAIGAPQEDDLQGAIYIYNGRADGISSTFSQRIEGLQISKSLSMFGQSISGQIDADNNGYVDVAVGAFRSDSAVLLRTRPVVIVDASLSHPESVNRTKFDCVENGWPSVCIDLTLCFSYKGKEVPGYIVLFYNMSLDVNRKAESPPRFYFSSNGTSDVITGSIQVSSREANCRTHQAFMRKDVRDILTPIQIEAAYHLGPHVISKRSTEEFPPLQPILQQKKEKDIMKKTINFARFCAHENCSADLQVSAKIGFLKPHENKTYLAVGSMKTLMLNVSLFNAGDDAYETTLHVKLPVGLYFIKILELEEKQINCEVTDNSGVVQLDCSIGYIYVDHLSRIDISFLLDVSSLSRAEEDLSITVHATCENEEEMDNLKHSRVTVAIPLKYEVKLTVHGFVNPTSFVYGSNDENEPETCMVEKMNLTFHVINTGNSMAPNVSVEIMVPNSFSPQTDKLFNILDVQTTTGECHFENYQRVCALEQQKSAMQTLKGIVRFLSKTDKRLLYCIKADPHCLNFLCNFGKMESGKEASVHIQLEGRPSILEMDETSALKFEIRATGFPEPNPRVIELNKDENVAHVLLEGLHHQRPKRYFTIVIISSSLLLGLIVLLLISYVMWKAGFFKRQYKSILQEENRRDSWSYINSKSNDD
T1 sequence (P26010 20-798): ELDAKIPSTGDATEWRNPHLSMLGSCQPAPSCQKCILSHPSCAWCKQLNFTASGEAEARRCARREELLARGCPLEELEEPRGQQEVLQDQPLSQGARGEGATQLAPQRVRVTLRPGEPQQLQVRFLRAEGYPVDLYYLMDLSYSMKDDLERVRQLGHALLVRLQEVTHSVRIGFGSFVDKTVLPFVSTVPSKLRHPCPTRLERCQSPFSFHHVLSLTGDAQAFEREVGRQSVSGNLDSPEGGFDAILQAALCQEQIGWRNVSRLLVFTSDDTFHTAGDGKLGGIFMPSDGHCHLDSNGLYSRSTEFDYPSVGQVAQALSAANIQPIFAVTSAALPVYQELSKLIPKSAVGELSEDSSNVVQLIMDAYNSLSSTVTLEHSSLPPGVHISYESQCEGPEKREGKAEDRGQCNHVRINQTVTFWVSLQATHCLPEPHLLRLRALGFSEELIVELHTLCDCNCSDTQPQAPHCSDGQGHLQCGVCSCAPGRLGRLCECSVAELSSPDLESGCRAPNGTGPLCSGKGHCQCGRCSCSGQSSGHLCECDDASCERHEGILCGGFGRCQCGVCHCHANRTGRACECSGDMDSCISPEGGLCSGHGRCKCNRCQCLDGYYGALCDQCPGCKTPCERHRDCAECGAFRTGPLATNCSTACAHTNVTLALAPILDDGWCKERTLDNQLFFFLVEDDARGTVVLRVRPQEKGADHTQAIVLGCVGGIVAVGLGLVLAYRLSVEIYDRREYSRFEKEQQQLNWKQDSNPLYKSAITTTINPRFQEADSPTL
Outline: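 Peptide inhibition of adhesion measured with MAdCAM-1/Fc chimera immobilised at 200 ng/well and MnCl2-activated (1 mM) RPMI 8866 cells, 30-45 min at 37° C. Adherent cells remaining after three washes detected by MTT reduction at 570 nm, corrected for no-cell wells, giving dose response.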

SMILES	IC50
CC(C)C[C@@H]1NC(=O)[C@H]([C@@H](C)O)NC(=O)[C@H](CC(=O)O)NC(=O)[C@H](CO)NC(=O)[C@H](CCCNC(=N)N)N(C)C(=O)c2ccccc2CSC(C)(C)[C@@H](C(=O)N[C@@H](Cc2c[nH]c3ccccc23)C(=O)N[C@H](CCC(=O)O)C(=O)N[C@@H](CCN)C(N)=O)NC1=O [compound 95] (HELM PEPTIDE1{[meR].S.D.T.L.[Pen].W.[dE].[Dab].[am]}|CHEM1{[O=C(c1ccccc1C[*:2])[*:1]]}$PEPTIDE1,CHEM1,1:R1-1:R1|PEPTIDE1,CHEM1,6:R3-1:R2$$$V2.0)	100 to 1000 nM
CC(C)C[C@@H]1NC(=O)[C@H]([C@@H](C)O)NC(=O)[C@H](CC(=O)O)NC(=O)[C@H](CO)NC(=O)[C@H](CCCNC(=N)N)N(C)C(=O)c2ccccc2CSC(C)(C)[C@@H](C(=O)N[C@@H](Cc2ccc(-c3ccccc3)cc2)C(=O)N[C@@H](CCC(=O)O)CC(N)=O)NC1=O [compound 133] ([NMeR]SDTL[Pen][Bip][β3hE]-NH2; linker N-6 via X1)	< 25 nM
CC(C)C[C@@H]1NC(=O)[C@H]([C@@H](C)O)NC(=O)[C@H](CC(=O)O)NC(=O)[C@H](CO)NC(=O)[C@H](CCCNC(=N)N)N(C)C(=O)c2ccccc2CSC(C)(C)[C@@H](C(=O)N[C@@H](Cc2ccc3ccccc3c2)C(N)=O)NC1=O [compound 116] (HELM PEPTIDE1{[meR].S.D.T.L.[Pen].[O=C([C@H](Cc1ccc2ccccc2c1)N[*:1])[*:2]].[am]}|CHEM1{[O=C(c1ccccc1C[*:2])[*:1]]}$PEPTIDE1,CHEM1,1:R1-1:R1|PEPTIDE1,CHEM1,6:R3-1:R2$$$V2.0)	25 to 100 nM
CC(C)C[C@@H]1NC(=O)[C@H]([C@@H](C)O)NC(=O)[C@H](CC(=O)O)NC(=O)[C@H](CO)NC(=O)[C@H](CCCNC(=N)N)N(C)C(=O)c2ccccc2CSC(C)(C)[C@@H](C(=O)N[C@@H](Cc2c[nH]c3ccccc23)C(=O)N[C@H](CCC(=O)O)C(=O)N[C@@H](Cc2ccccc2)C(N)=O)NC1=O [compound 101] (HELM PEPTIDE1{[meR].S.D.T.L.[Pen].W.[dE].F.[am]}|CHEM1{[O=C(c1ccccc1C[*:2])[*:1]]}$PEPTIDE1,CHEM1,1:R1-1:R1|PEPTIDE1,CHEM1,6:R3-1:R2$$$V2.0)	100 to 1000 nM
CC(=O)NCCCC[C@@H](NC(=O)[C@H](CCC(=O)O)NC(=O)[C@H](Cc1c[nH]c2ccccc12)NC(=O)[C@H]1NC(=O)[C@H](CC(C)C)NC(=O)[C@H]([C@@H](C)O)NC(=O)[C@H](CC(=O)O)NC(=O)[C@H](CO)NC(=O)[C@H](CCCNC(=N)N)N(C)C(=O)c2ccccc2CSC1(C)C)C(N)=O [compound 80] (HELM PEPTIDE1{[meR].S.D.T.L.[Pen].W.E.[dK].[am]}|PEPTIDE2{[ac]}|CHEM1{[O=C(c1ccccc1C[*:2])[*:1]]}$PEPTIDE1,PEPTIDE2,9:R3-1:R2|PEPTIDE1,CHEM1,1:R1-1:R1|PEPTIDE1,CHEM1,6:R3-1:R2$$$V2.0)	25 to 100 nM
CC(=O)NCCCC[C@@H](NC(=O)[C@@H](CCC(=O)O)NC(=O)[C@H](Cc1c[nH]c2ccccc12)NC(=O)[C@H]1NC(=O)[C@H](CC(C)C)NC(=O)[C@H]([C@@H](C)O)NC(=O)[C@H](CC(=O)O)NC(=O)[C@H](CO)NC(=O)[C@H](CCCNC(=N)N)N(C)C(=O)c2ccccc2CSC1(C)C)C(N)=O [compound 81] (HELM PEPTIDE1{[meR].S.D.T.L.[Pen].W.[dE].[dK].[am]}|PEPTIDE2{[ac]}|CHEM1{[O=C(c1ccccc1C[*:2])[*:1]]}$PEPTIDE1,PEPTIDE2,9:R3-1:R2|PEPTIDE1,CHEM1,1:R1-1:R1|PEPTIDE1,CHEM1,6:R3-1:R2$$$V2.0)	25 to 100 nM
CC(C)C[C@@H]1NC(=O)[C@H]([C@@H](C)O)NC(=O)[C@H](CC(=O)O)NC(=O)[C@H](CO)NC(=O)[C@H](CCCNC(=N)N)N(C)C(=O)c2ccccc2CSC(C)(C)[C@@H](C(=O)N[C@@H](Cc2ccc(C(C)(C)C)cc2)C(=O)N[C@@H](CCC(=O)O)CC(N)=O)NC1=O [compound 134] ([NMeR]SDTL[Pen][Phe(4-tBu)][β3hE]-NH2; linker N-6 via X1)	< 25 nM
CC(C)C[C@@H]1NC(=O)[C@H]([C@@H](C)O)NC(=O)[C@H](CC(=O)O)NC(=O)[C@H](CO)NC(=O)[C@H](CCCNC(=N)N)N(C)C(=O)c2ccccc2CSC(C)(C)[C@@H](C(=O)N[C@@H](Cc2c[nH]c3ccccc23)C(=O)N[C@@H](CCC(=O)O)C(=O)N[C@@H](CN)C(N)=O)NC1=O [compound 92] (HELM PEPTIDE1{[meR].S.D.T.L.[Pen].W.E.[NC[C@H](N[*:1])C(=O)[*:2]].[am]}|CHEM1{[O=C(c1ccccc1C[*:2])[*:1]]}$PEPTIDE1,CHEM1,1:R1-1:R1|PEPTIDE1,CHEM1,6:R3-1:R2$$$V2.0)	25 to 100 nM

same assay, conditions: thioether peptide dimers, Table 7; read-out: Cell-Adhesion A4B7

SMILES	IC50
CC(C)C[C@@H]1NC(=O)[C@H]([C@@H](C)O)NC(=O)[C@H](CC(=O)O)NC(=O)[C@H](CO)NC(=O)[C@H](CCCNC(=N)N)N(C)C(=O)c2ccccc2CSC(C)(C)[C@@H](C(=O)N[C@@H](Cc2c[nH]c3ccccc23)C(=O)N[C@H](CCC(=O)O)C(=O)N[C@H](CCCCNC(=O)COCC(=O)NCCCC[C@@H](NC(=O)[C@@H](CCC(=O)O)NC(=O)[C@H](Cc2c[nH]c3ccccc23)NC(=O)[C@H]2NC(=O)[C@H](CC(C)C)NC(=O)[C@H]([C@@H](C)O)NC(=O)[C@H](CC(=O)O)NC(=O)[C@H](CO)NC(=O)[C@H](CCCNC(=N)N)N(C)C(=O)c3ccccc3CSC2(C)C)C(=O)O)C(=O)O)NC1=O [compound 209] (I: [NMeR]SDTL[Pen]W[dE][dK]-OH / II: [NMeR]SDTL[Pen]W[dE][dK]-OH; linker I:9-II:9 via Diglycolyl; linker I:N-I:6, II:N-II:6 via X1)	< 25 nM
CC(C)C[C@@H]1NC(=O)[C@H]([C@@H](C)O)NC(=O)[C@H](CC(=O)O)NC(=O)[C@H](CO)NC(=O)[C@H](CCCNC(=N)N)N(C)C(=O)c2ccccc2CSC(C)(C)[C@@H](C(=O)N[C@@H](Cc2ccc(-c3ccccc3)cc2)C(=O)N[C@H](CCC(=O)O)C(=O)N[C@H](CCCCN)C(N)=O)NC1=O [compound 178] (HELM PEPTIDE1{[meR].S.D.T.L.[Pen].[O=C([C@H](Cc1ccc(-c2ccccc2)cc1)N[*:1])[*:2]].[dE].[dK].[am]}|CHEM1{[O=C(c1ccccc1C[*:2])[*:1]]}$PEPTIDE1,CHEM1,1:R1-1:R1|PEPTIDE1,CHEM1,6:R3-1:R2$$$V2.0)	< 25 nM
CC(C)C[C@@H]1NC(=O)[C@H]([C@@H](C)O)NC(=O)[C@H](CC(=O)O)NC(=O)[C@H](CO)NC(=O)[C@H](CCCNC(=N)N)N(C)C(=O)c2ccccc2CSC[C@@H](C(=O)N2Cc3ccccc3C[C@H]2C(=O)N[C@H](CCC(=O)O)C(=O)N[C@H](CCCCNC(=O)COCC(=O)NCCCC[C@@H](NC(=O)[C@@H](CCC(=O)O)NC(=O)[C@@H]2Cc3ccccc3CN2C(=O)[C@@H]2CSCc3ccccc3C(=O)N(C)[C@@H](CCCNC(=N)N)C(=O)N[C@@H](CO)C(=O)N[C@@H](CC(=O)O)C(=O)N[C@@H]([C@@H](C)O)C(=O)N[C@@H](CC(C)C)C(=O)N2)C(=O)O)C(=O)O)NC1=O [compound 207] (I: [NMeR]SDTLC[Tic][dE][dK]-OH / II: [NMeR]SDTLC[Tic][dE][dK]-OH; linker I:9-II:9 via Diglycolyl; linker I:N-I:6, II:N-II:6 via X1)	< 25 nM
